Measured values published in patent US11202773B2, “Locally bioavailable drugs” (UNIVERSITY OF HOUSTON SYSTEM, priority 2015, dated 2021).

Key:
mouse COX-2 = molecular target: T1, mouse COX-2 (Mus musculus, UniProt Q05769); experiment: COX-2 activity (PGD2/PGE2 production) in LPS-induced Raw264.7 cells; type: cell-based; settings: for IC50: 0.1 μg/mL LPS, 14 hours co-incubation; for PGD2 production, % of control / PGD2 production by Raw264.7 cells: LPS, 14 hours; for PGD2 production by Raw264.7 cells: 1 μM compound, result in words
T1 construct: Raw264.7 is a mouse macrophage cell line which expresses a high level of COX-2 protein upon lipopolysaccharide (LPS) induction; endogenous in cells; host or cells: Raw264.7 (LPS-induced)
T1 sequence (Q05769 18-604): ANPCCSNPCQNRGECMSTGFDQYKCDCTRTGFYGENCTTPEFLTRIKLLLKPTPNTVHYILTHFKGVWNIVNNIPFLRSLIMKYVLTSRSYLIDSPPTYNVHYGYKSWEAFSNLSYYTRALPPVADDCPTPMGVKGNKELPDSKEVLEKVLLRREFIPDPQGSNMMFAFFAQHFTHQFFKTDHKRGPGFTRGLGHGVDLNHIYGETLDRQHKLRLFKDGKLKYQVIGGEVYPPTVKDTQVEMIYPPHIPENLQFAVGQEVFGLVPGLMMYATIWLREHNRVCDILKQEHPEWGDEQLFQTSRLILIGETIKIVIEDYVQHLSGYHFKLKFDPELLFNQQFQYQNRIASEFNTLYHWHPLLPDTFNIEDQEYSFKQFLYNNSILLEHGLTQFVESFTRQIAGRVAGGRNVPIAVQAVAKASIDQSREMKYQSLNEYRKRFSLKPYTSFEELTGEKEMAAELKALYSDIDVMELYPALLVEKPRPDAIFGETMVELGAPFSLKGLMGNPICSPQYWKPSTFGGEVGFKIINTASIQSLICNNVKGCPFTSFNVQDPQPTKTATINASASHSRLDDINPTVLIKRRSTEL
Method: (§1) First, the inhibitory effects of the new synthesized compounds on COX-2 were assayed in two cell lines: Raw264.7 cells and HCA-7 cells. Raw264.7 is a mouse macrophage cell line which expresses a high level of COX-2 protein upon lipopolysaccharide (LPS) induction. […] The concentration of prostaglandins (both PGD2 and PGE2) accumulated in the cell culture medium can be employed as an indicator of COX-2 activity. HCA-7 is a human colon cancer cell line in which COX-2 protein is constitutively expressed. Briefly, the cells were pre-incubated with different concentrations of the new compounds for 30 min, and then 10 μM A23187 (a calcium ionophore) was added to release membrane-bound arachidonic acid (the natural substrate of COX-2) to the cytosolic domain. The system was incubated for another 30 minutes and PGE2 concentrations in the culture medium were determined. In both cell lines, higher PGD2/PGE2 concentrations in the media meant more COX-2 activity.

recombinant human COX-1 = recombinant human COX-1 (Homo sapiens, UniProt P23219); experiment: In vitro enzyme assay, recombinant human COX-1; type: biochemical; settings: read-out: IC50 against recombinant human COX-1
rat colon microsomes = experiment: Glucuronidation by rat colon microsomes; type: in vitro ADME
Method: FIG. 5B is a bar graph illustrating in vitro glucuronidation of phenolics in liver and colon microsomes of rats. Glucuronidation rates of 6a1-6a4 by rat liver and colon microsomes were measured. Additional metabolic rates of various locally bioavailable COX-2 inhibitors are in Table 3. […]. The incubation systems were: for glucuronidation, 0.88 mM magnesium chloride (MgCl2), 4.4 mM saccharolactone, 0.022 mg/mL alamethicin, 3.5 mM uridine 5′-diphospho-glucuronic acid (UDPGA), 10 μM substrates and different concentrations of microsomes in 50 mM potassium phosphate buffer (pH 7.4); for sulfation, 10 mM dithiothreitol (DTT), 5 mM MgCl2, 100 μM 3′-phosphoadenosine-5′-phosphosulfate (PAPS), 10 μM substrate and different concentrations of S9 fractions in 50 mM potassium phosphate buffer (pH 7.4).
(§2) In vitro tools were employed to help predict the in vivo metabolism rates of the COX-2 inhibitors that are phenolics. The microsomes and S9 fractions prepared from colon or liver were used to determine the in vivo glucuronidation and sulfation rates of the phenolic compounds, respectively. By employing microsomes and S9 fractions prepared from both rats and humans, it could be determined if the results obtained in the rat model could be reasonably extrapolated to humans. In these experiments, raloxifene and genistein, two phenolic compounds which undergo extensive first-pass metabolism, were selected as controls.

human liver microsomes = experiment: Glucuronidation by human liver microsomes; type: in vitro ADME
Method: FIG. 5D is a bar graph illustrating in vitro metabolism of phenolics. Glucuronidation rates of 6a1-6a4 by human liver and intestinal microsomes. Additional metabolic rates of various locally bioavailable COX-2 inhibitors are in Table 4. […]. The incubation systems were: for glucuronidation, 0.88 mM magnesium chloride (MgCl2), 4.4 mM saccharolactone, 0.022 mg/mL alamethicin, 3.5 mM uridine 5′-diphospho-glucuronic acid (UDPGA), 10 μM substrates and different concentrations of microsomes in 50 mM potassium phosphate buffer (pH 7.4); for sulfation, 10 mM dithiothreitol (DTT), 5 mM MgCl2, 100 μM 3′-phosphoadenosine-5′-phosphosulfate (PAPS),10 μM substrate and different concentrations of S9 fractions in 50 mM potassium phosphate buffer (pH 7.4).
as §2

human COX-2 = molecular target: T2, human COX-2 (Homo sapiens, UniProt P35354); experiment: COX-2 activity (PGE2 production) in HCA-7 cells after A23187; type: cell-based; set-up: HCA-7 is a human colon cancer cell line in which COX-2 protein is constitutively expressed; endogenous in cells; host or cells: HCA-7; settings: 30 min pre-incubation, 10 μM A23187, another 30 minutes
T2 sequence (P35354 18-604): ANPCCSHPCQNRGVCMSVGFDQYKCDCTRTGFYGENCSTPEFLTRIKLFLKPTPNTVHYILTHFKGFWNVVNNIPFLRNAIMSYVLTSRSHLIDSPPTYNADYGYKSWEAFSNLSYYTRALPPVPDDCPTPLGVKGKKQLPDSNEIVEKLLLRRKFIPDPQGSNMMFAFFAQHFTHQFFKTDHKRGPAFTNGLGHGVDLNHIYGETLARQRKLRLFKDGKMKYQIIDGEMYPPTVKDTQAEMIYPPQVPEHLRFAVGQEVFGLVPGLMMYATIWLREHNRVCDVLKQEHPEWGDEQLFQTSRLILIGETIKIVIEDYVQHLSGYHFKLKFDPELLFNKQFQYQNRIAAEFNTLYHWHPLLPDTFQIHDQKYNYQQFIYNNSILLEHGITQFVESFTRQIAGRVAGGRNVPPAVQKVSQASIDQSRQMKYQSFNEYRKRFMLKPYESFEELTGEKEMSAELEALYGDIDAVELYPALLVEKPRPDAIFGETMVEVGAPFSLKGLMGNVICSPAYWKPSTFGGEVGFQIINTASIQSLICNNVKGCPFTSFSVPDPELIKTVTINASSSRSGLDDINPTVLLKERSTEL
Method: as §1

recombinant human COX-1, sequence (P23219 24-599): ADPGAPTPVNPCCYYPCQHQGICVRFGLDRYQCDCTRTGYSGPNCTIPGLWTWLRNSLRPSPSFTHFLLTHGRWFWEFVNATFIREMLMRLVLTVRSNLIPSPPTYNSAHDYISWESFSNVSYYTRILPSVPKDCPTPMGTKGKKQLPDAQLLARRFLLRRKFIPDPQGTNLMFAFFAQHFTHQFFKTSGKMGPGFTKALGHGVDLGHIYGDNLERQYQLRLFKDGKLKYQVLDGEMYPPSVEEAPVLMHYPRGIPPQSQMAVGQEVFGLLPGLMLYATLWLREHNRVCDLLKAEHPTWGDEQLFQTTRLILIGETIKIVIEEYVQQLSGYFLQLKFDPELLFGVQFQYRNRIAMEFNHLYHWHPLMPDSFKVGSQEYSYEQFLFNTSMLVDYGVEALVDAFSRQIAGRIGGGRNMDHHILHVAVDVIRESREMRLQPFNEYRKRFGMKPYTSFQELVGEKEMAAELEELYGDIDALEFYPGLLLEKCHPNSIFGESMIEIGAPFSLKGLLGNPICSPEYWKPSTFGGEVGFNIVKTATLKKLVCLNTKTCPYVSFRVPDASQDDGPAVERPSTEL

Row | IC50 (mouse COX-2) | PGD2 production, % of control (mouse COX-2; 1 μM 6a1, with glucuronidase (200 units/mL)) | PGD2 production, % of control (mouse COX-2; 1 μM 6a1, without glucuronidase) | PGD2 production by Raw264.7 cells (mouse COX-2) | IC50 (recombinant human COX-1) | Glucuronidation rates by colon microsomes (Mean) (rat colon microsomes) | Glucuronidation rates by liver microsomes (Mean) (human liver microsomes) | IC50 (human COX-2) | SMILES
1 | 1.39 ± 0.384 µM | 24.3 % of control | 67.5 % of control | only slightly reduced | 5130 nM | 1111 pmol/mg/min | 11576 pmol/mg/min | 0.195 ± 0.03 µM | Cc1ccc(-c2cc(COc3ccccc3O)nn2-c2ccc(S(N)(=O)=O)cc2)cc1 [Compound 6a1]
2 | 4.62 ± 1.34 µM | – | – | only slightly reduced | 27200 nM | 1199 pmol/mg/min | 1512 pmol/mg/min | 0.134 ± 0.018 µM | Cc1ccc(-c2cc(COc3cccc(O)c3)nn2-c2ccc(S(N)(=O)=O)cc2)cc1 [Compound 6a2]
3 | 0.019 ± 0.002 µM | – | – | thoroughly inhibited | 38200 nM | 301 pmol/mg/min | 60 pmol/mg/min | 0.064 ± 0.005 µM | Cc1ccc(-c2cc(COc3ccc(O)cc3)nn2-c2ccc(S(N)(=O)=O)cc2)cc1 [Compound 6a3]
